For data set [1] the following is noted: cited from earlier work; for prolonged progression-free survival: treatment of metastatic RCC.
A further data set has as its system A-498 cells. Put plainly: WST-1 cell viability assay, A-498 cells. In kind it is cell-based. The note with it: Everolimus monotherapy, 1, 5 or 10 μM, three days. The procedure:
(§1) The WST-1 assay was performed to determine cell viability. The working principle of this assay is based on the conversion of the stable tetrazolium salt WST-1 into soluble formazan by viable cells. During conversion of WST-1 to formazan, a color change that is measurable at 450 and 630 nm wavelengths occurs in the cell medium. In other words, the amount of formazan dye is proportional to the number of metabolically active (viable) cells. The color change was evaluated by measuring the absorbance in the ELISA device and the obtained values were analyzed using the Graph Pad Prism 7 database.
(§2) To determine the toxic effect of Everolimus and ABT-737 on cell viability, primary A-498 and metastatic Caki-1 RCC cell lines that are resistant to drug Everolimus were used in this study and the toxic effect was determined by using the WST-1 method.
(§3) Everolimus and ABT-737 drugs were administered to A-498 and Caki-1 cells, which were seeded in 96-well culture plates, for three days to determine the appropriate dose for the combination. The effect of the drugs prepared at three different concentrations (1, 5, or 10 μM) on cell viability was determined using the WST-1 method. […] The amount of drug composition for Caki-1 (10,000 cells/well) metastatic cells was determined as 1 μM Everolimus and 10 μM ABT-737. […]
On the technique in general: Tetrazolium dyes change colour on reduction, which living cells bring about.

For data set [2], the system named is Caki-1 cells. Put plainly: WST-1 cell viability assay, Caki-1 cells. In kind it is cell-based. The procedure:
as §1, §2, §3

In the next data set the test system is HEK293 cells. Put plainly: WST-1 cell viability assay on healthy kidney cells (toxicity). In kind it is cell-based, human. The protocol: as §1
Human embryonic kidney (HEK293) cells were used as a cell model to test whether Everolimus and ABT-737 had any toxic effects on healthy kidney cells. HEK293 cells were treated with the drug composition (1 μM for Everolimus and 5 μM for ABT-737) for 3 days and the toxicity response was determined by measuring cell viability by WST-1 assay for 3 days.

Another data set has as its system RenCa cells. Put plainly: WST-1 cell viability assay, RenCa cells. In kind it is cell-based, murine. Conditions: Everolimus 1, 5 and 10 μM, after 48 hours of treatment. The protocol:
as §1
(§4) The process of tumor development was monitored.

Data set [3] deals with Everolimus-resistant RenCa (erRenCa) cells. Put plainly: WST-1 cell viability assay, Everolimus-resistant RenCa cells. Conditions: Everolimus 1, 5 and 10 μM, at the end of three days. Type of data set: cell-based, murine. The protocol:
as §1
RenCa cells were made resistant to Everolimus for the use in in vivo experiments. In this regard, RenCa cells were seeded in 96-well culture plates. After 24 hours, the cells were treated with 1 μM Everolimus for 72 hours. At the end of 72 hours, the cells were washed with PBS (Phosphate-buffered saline) and treated with 10 μM Everolimus for an additional 72 hours. Cells that developed resistance to Everolimus were transferred to 6-well culture plates and were grown in an Everolimus-free medium. Cells reaching a density of 90% were transferred to T-75 culture plates and were grown for 2 months in a medium containing 1 μM Everolimus.
as §4

Data set [4] concerns mTOR pathway in A-498 cells. Put plainly: Western Blotting of mTOR pathway proteins, A-498 cells. In kind it is cell-based. The note with it: 1 μM Everolimus alone or with 5 μM ABT-737, 24 hours. The protocol: (§5) A-498 and Caki-1 RCC cells were used to investigate the molecular effect of the Everolimus and ABT-737 drug composition on the mTOR pathway. A-498 cells and Caki-1 cells seeded in 6-well plates were treated for 24 hours with 1 μM Everolimus and 5 μM ABT-737 and 1 μM Everolimus and 10 μM ABT-737, respectively. At the end of 24 hours, proteins were isolated from the cells. These proteins were then used to determine the expression of proteins that play a key role in the mTOR pathway by performing the Western Blotting technique.
Background: In western blotting, separated proteins are transferred to a membrane and probed.

Data set [5] relates to mTOR pathway in Caki-1 cells. Put plainly: Western Blotting of mTOR pathway proteins, Caki-1 cells. Conditions: 1 μM Everolimus alone or with 10 μM ABT-737, 24 hours. In kind it is cell-based. The protocol:
as §5

The subject of data set [6] is Everolimus-resistant RenCa (erRenCa) cells. Put plainly: In vivo tumor model with erRenCa cells injected into the dorsal area. Also on record: species or system Balb/c mice. The note with it: for animals with tumor formation: 2 mg/kg Everolimus and/or 75 mg/kg ABT-737 intraperitoneally every other day from day 4, 11 injections, eight animals per group. The procedure:
Everolimus stock solution was prepared by dissolving 10 mg lyophilized Everolimus in 1.043 ml DMSO (Dimethyl sulfoxide) (9.6 mg/ml) and ABT-737 stock solution was prepared by dissolving 10 mg ABT-737 in 1.229 ml DMSO (8.14 mg/ml). Stock concentration of both drugs was 10 mM. For in vitro conditions, dilutions were made in cell culture medium at concentrations ranging from 1-5 μM from Everolimus stock concentration. For in vivo conditions, the drug Everolimus that will be injected to animals was prepared by diluting the stock concentration in PBS (Phosphate-buffered saline) to a concentration of 2 mg/kg. For in vitro conditions, dilutions were made in cell culture medium at concentrations ranging from 1-10 μM from ABT-737 stock concentration. For in vivo conditions, the drug ABT-737 that will be injected to animals was prepared by diluting the stock concentration in PBS (Phosphate-buffered saline) to a concentration of 75 mg/kg. Prior to injection, the volume of the injected drug is adjusted to 200 μl by addition of PBS (Phosphate-buffered saline). The drugs were injected into the animals separately one minute apart without being mixed.
as §4
These erRenCa kidney cancer cells were used as a cancer cell line to form a kidney cancer tumor model in animals. For this purpose, cells were subcutaneously injected into the dorsal area of Balb/c mice. […] The experiment was terminated at the end of 11 injections. […] In order to develop resistance to Everolimus, erRenCa cells inactivated their mTOR pathway and began to use the Bcl-2 pathway for their survival. Therefore, cancer cells could only undergo cell death after blocking the anti-apoptotic Bcl-2 survival pathway with the drug ABT-737.

The conditions of data set [7]: mouse, in vivo.
From the text: At the end of the experiment, the organs including thymus, heart, stomach, intestine, kidney, spleen, testis, lung, liver, and brain were taken from the animals in each group and were sent for pathological examination. […] At the same time, the metastatic focus in these tissues was also examined.
Data set [8] has as its system Caki-1 cells. Put plainly: Annexin-V cell death detection assay, Caki-1 cells. Type of data set: cell-based. The note with it: 1 μM Everolimus and 10 μM ABT-737, or ABT-737 monotherapy; 24, 48 and 72 hours.
The mark [9] stands for this setting: Everolimus group, 2 mg/kg intraperitoneally every other day, 2 mg/kg.
Where [10] appears, read: ABT-737 group, 75 mg/kg intraperitoneally every other day.

We go through four molecules from patent publication US10918644B2, “Chemotherapeutic drug composition” (YEDITEPE UNIVERSITESI, priority 2017, dated 2021).

Several values for one entry are separate records, joined by “and”; a condition that tells them apart may be missing. Equal entries are not always repeated. Entries after “also recorded” stand apart in the source; their conditions may differ.

Consider `CO[C@H]1C[C@@H]2CC[C@@H](C)[C@@](O)(O2)C(=O)C(=O)N2CCCC[C@H]2C(=O)O[C@H]([C@H](C)C[C@@H]2CC[C@@H](OC(=O)C(C)(CO)CO)[C@H](OC)C2)CC(=O)[C@H](C)/C=C(\C)[C@@H](O)[C@@H](OC)C(=O)[C@H](C)C[C@H](C)/C=C/C=C/C=C/1C` [Temsirolimus], for which the prolonged progression-free survival entry in data set [1] is given as “up to 3.8 months”.
On to `CNC(=O)c1cc(Oc2ccc(NC(=O)Nc3ccc(Cl)c(C(F)(F)F)c3)cc2)ccn1` [Sorafenib], for which the prolonged progression-free survival result in [1] is listed as “up to 5.9 months”.
Take `CO[C@H]1C[C@@H]2CC[C@@H](C)[C@@](O)(O2)C(=O)C(=O)N2CCCC[C@H]2C(=O)O[C@H]([C@H](C)C[C@@H]2CC[C@@H](OCCO)[C@H](OC)C2)CC(=O)[C@H](C)/C=C(\C)[C@@H](O)[C@@H](OC)C(=O)[C@H](C)C[C@H](C)/C=C/C=C/C=C/1C` [Everolimus]: the “response of cell viability to Everolimus (toxicology results)” value with A-498 cells is recorded as “resistant”; in the data set with Caki-1 cells [2] (Everolimus monotherapy, 1, 5 or 10 μM, three days), “resistant”. Moreover, in the data set on HEK293 cells (1 μM Everolimus, 24 and 48 hours), the “cytotoxic effect on healthy kidney cells” value is on record as “did not show any cytotoxic effect”. The “decrease in the cell viability compared to untreated control cells” value with HEK293 cells (1 μM Everolimus, 72 hour-treatment) was 50%. Moreover, the “effect on cell viability” value in the data set on RenCa cells is “caused toxic effects”. Further, the “change in cell viability” value in data set [3] is “did not cause any change”. In addition, the “S6 protein phosphorylated at serine 240/244 (S6-S240/244P)” value in data set [4] and in data set [5] was “decrease” throughout. The “basal p70S6K protein expression” value in data set [4] (vs control cells) and in data set [5] (vs control cells) was “decreased” throughout. Further, the “p70S6K protein phosphorylated at threonine 389 (p70S6K-T389P)” value in data set [4] (vs control cells) and in data set [5] (vs control cells) was “decrease” throughout. Moreover, the “autophosphorylation of the mTOR kinase at serine 2448 (mTOR-S2448P)” value in [4] (vs untreated control cells) and in data set [5] (vs untreated control cells) was “diminished” in each case. Besides, the “animals with tumor formation” value in data set [6] is “four of the eight”. Besides, the “Grade (WHO/ISUP, per animal H1-H8)” value in [6] (setting [9]) is 4 (3×) and 2. Further, the “Necrosis (per animal H1-H8)” value in [6] (setting [9]) is “No (7×) and Yes”. For the same molecule, the “Tumor (pathological examination, per animal H1-H8)” value in data set [6] (setting [9]) was “Renal cell carcinoma; also recorded: No tumor”. The “toxic effects on the animals (pathological examination of the tissues)” value in [7] was “did not show any toxic effects”. Moreover, the increase of survival result in [1] (advanced stage RCC, Phase III clinical trials, after failure of VEGF therapy) is listed as “about 4.9 months”. In addition, the prolonged progression-free survival result in data set [1] was “up to 4.9 months”.
`CN(C)CC[C@H](CSc1ccccc1)Nc1ccc(S(=O)(=O)NC(=O)c2ccc(N3CCN(Cc4ccccc4-c4ccc(Cl)cc4)CC3)cc2)cc1[N+](=O)[O-]` [ABT-737]: the “decrease in cell viability” value with Caki-1 cells [2] (ABT-737 monotherapy, after 72 hours) turned out to be 80%. In addition, the “decrease in the cell viability of healthy kidney cells” value in the data set with HEK293 cells (5 μM ABT-737, third day of the treatment) is “did not cause any decrease”. Further, the “apoptosis mediated cell death (Annexin-V)” value in the data set on Caki-1 cells [8] was “more significant increase in the cell death compared to the combination”. The “animals with tumor formation” value in data set [6] is on record as “three of the eight”. Moreover, in data set [6] (setting [10]), the “Grade (WHO/ISUP, per animal H1-H8)” value is recorded as 4 and the “Necrosis (per animal H1-H8)” value was “No”. Moreover, in [6] (ABT-737 group, 75 mg/kg intraperitoneally every other day, 75 mg/kg), the “Tumor (pathological examination, per animal H1-H8)” value is on record as “No tumor; also recorded: Renal cell carcinoma”. In addition, the “toxic effects on the animals (pathological examination of the tissues)” value in data set [7] is “did not show any toxic effects”.
